Experimental data as given in PMC5391289 (Nature chemical biology, 2017).
Ends that are not written are not given here.

Key:
Bacillus subtilis 168 = assay: Broth microdilution antimicrobial assay; format: cell-based; conditions: Mueller-Hinton broth, 100 µM to 49 nM, 37 °C, 18 h, at least 2 replicates
E. coli MC4100 = assay: Broth microdilution antimicrobial assay; format: cell-based, Escherichia coli; conditions: Mueller-Hinton broth, 100 µM to 49 nM, 37 °C, 18 h, at least 2 replicates
[1] = system: Enterococcus faecium U503 (VRE); assay: Broth microdilution antimicrobial assay; format: cell-based; conditions: Mueller-Hinton broth, 100 µM to 49 nM, 37 °C, 18 h, at least 2 replicates
[2] = system: Mycobacterium smegmatis NRRL B-14616; assay: Broth microdilution antimicrobial assay; format: cell-based; conditions: Mueller-Hinton broth, 100 µM to 49 nM, 37 °C, 24 h, at least 2 replicates
[3] = system: Bacillus anthracis Sterne; format: cell-based
panel of bacteria = assay: Broth microdilution antimicrobial assay; format: cell-based; conditions: all organisms tested, 100 µM to 49 nM compound, 37 °C, no visible growth after 18 h (24 h M. smegmatis), at least 2 replicates

| Sequence | growth-suppressive activity (Bacillus subtilis 168) | growth-suppressive activity (E. coli MC4100) | growth-suppressive activity (panel of bacteria) | other results |
| --- | --- | --- | --- | --- |
| GFIGWGNDIFGHYSGG (also: lariat or depsi (positions not given here)) [anantin B2] | moderately active | weak activity | – | – |
| GFIGWGNDIFGHYSGGF (also: lariat or depsi (positions not given here)) [anantin B1] | – | weak activity | – | – |
| GRPNWGFENDWSCVRVC (also: bicyclic or more (positions not given here)) [LP2006] | active | – | – | growth-suppressive activity [1]: active; growth-suppressive activity [2]: active; growth-suppressive activity [3]: active |
| LAGQGSPDLLGGHSLL (also: lariat or depsi (positions not given here)) [lagmysin] | – | – | lacked growth suppressive activity towards all organisms tested | – |
| LLGLAGNDRLVLSKN (also: lariat or depsi (positions not given here)) [Citrulassin A] | – | – | lacked growth suppressive activity towards all organisms tested | – |
| SYHWGDYHDWHHGWYGWWDD (also: lariat or depsi (positions not given here)) [moomysin] | – | – | lacked growth suppressive activity towards all organisms tested | – |
